According to patent US20170128480A1, “Cardiac Glycosides for the Treatment of Hypercholesterolemia” (priority 2015, published 2017):

Tests used:
hepatocytes = experiment: Lipoprotein profile (VLDL/LDL/HDL) of hepatocyte secretion by FPLC; format: cell-based; details: 310 nm; 4-hr collection period
Description: FIGS. 13A-B (A) is a graph of the results of a FPLC showing the impact of Digoxin and Proscillaridin on the increase in the size of LDL/VLDL particles and the increase of HDL particle number in serum (FIG. 13B, enhanced).
The experiment is a simple collection of cell culture media and then uses a known assay to measure VLDL/LDL/HDL by HPLC.
Cell culture media (the serum samples of example 5) is collected and then using a known assay (see, Example 3) VLDL/LDL/HDL is measured by FPLC HPLC. The experiment was performed by Evanthia Pashos Ph.D, a post-doctoral researcher at the University of Pennsylvania. Dr. Pashos was instructed what concentration of drugs to use, how long to incubate, and to record lipoprotein profiles for HDL, LDL, VLDL. […] Hepatocyte secretion was collected and analyzed over a 4-hr collection period.

human ApoB-100 = experiment: Drug treatment of humanized FRGN avatar mice, serum human ApoB-100 and albumin by ELISA; format: in vivo; details: i.p., 48-hour period, Digoxin 0.5 mg/kg, Proscillaridin 0.6 mg/kg/day, p≦0.05
Description: Prior to any drug or vehicle treatment, the ratio of ApoB-100 to albumin is approximately 30% higher in the serum of avatars repopulated with hepatocytes from donor A compared to donor B (p=0.032) (FIG. 8A). Human ApoB-100 and albumin is then measured before and after treatment with DMSO (vehicle), Digoxin or Proscillaridin, over a 48-hour period of time (FIG. 8C). […] The concentration of human albumin is unaffected in the serum of the same animals (FIG. 8B).
A sandwich ELISA to detect human albumin in tissue culture supernatants and mouse sera uses a 1:100 dilution of a capture human albumin coating antibody (Bethyl laboratories, A80-129A) and a 1:85,000 dilution of a Horseradish Peroxidase (HRP) conjugated human albumin detection antibody (Bethyl laboratories, A80-129P). Bound antibody is detected using 3,3′,5,5′-tetramethylbenzidine (TMB) and the concentration of albumin in each sample is determined by comparing to a standard curve (Bethyl laboratories, RS10-110). Human lipidated apoB-100 is detected using a commercial sandwich ELISA (product code: 3715-1H-6; MabTech, Inc.) and detected using TMB. The concentration of apoB-100 is determined by comparing to a standard curve using lipidated apoB-100 supplied by the manufacturer.
Fah^−/−Rag2^−/−IL2 gr^−/−NOD (FRGN) mice are generated and supplied by Dr. Markus Grompe. […]

Na+/K+-ATPase α2 subunit = Na+/K+-ATPase α2 subunit (Rattus norvegicus, UniProt P06686); details: Kolansky et al. 1992; cited from earlier work
[1] = test system: FH patient-specific iPSC-derived hepatocytes; experiment: ApoB-100 ELISA on culture medium of FH patient-specific iPSC-derived hepatocytes ([…] screen and triplicate validation); format: cell-based, human; details: tested in triplicate; FIG. 3
Description: ApoB-100 secretion is measured by enzyme linked immunosorbent assay (ELISA) using an antibody that specifically detects lipidated apoB-100, which represents lipoprotein particles secreted by the iPSC-derived hepatocytes. […] FH patient-specific iPSC cells are differentiated to hepatocyte-like cells in 96-well plates and the levels of lipidated ApoB-100 are measured before and after the application of 2320 small molecules from the [sequence] collection drug library (FIGS. 2A-B).
Using the before-drug and after-drug ApoB-100 concentration for each individual well (see the Examples below; each well represents 1 drug), a post:pre drug ratio of ApoB-100 is generated (referred to as delta-apoB-100; FIGS. 2A and 2B) and primary hits are identified by z-score analysis (FIG. 2B) as described by Zhang (Zhang, X. D., J Biomol Screen 16, 775-785 (2011)). A z-score is calculated for each compound, representing a multiple of the standard deviation of all the compounds included in the parent plate (30 plates total—FIG. 2A). […]
Pre-drug and post-drug apoB-100 concentrations are determined for each compound in the [sequence] library using a standard curve and four-parameter logistic (4PL) regression model. […] Primary hits are validated in secondary replicate experiments (n=3), and statistical significance is determined by a Student's t-test. […]

Na+/K+-ATPase α3 subunit = Na+/K+-ATPase α3 subunit (Rattus norvegicus, UniProt P06687); details: Kolansky et al. 1992; cited from earlier work

Compound | HDL secretion (hepatocytes) | VLD/LDL particle size (hepatocytes) | VLD/LDL total quantity (hepatocytes) | serum human ApoB-100 levels (human ApoB-100) | ouabain sensitivity (Na+/K+-ATPase α2 subunit) | Reductions of ApoB-100 levels, of DMSO controls [1] | ouabain sensitivity (Na+/K+-ATPase α3 subunit)
CC1O[C@@H](O[C@H]2C(O)C[C@H](O[C@H]3C(O)C[C@H](OC4CC[C@@]5(C)[C@H](CC[C@@H]6[C@@H]5C[C@@H](O)[C@]5(C)[C@@H](C7=CC(=O)OC7)CC[C@]65O)C4)OC3C)OC2C)CC(O)[C@@H]1O (stereo partly drawn) [Digoxin] | increase HDL secretion | increase VLD/LDL particle size | reduce VLD/LDL total quantity | significantly reduces serum ApoB-100 levels |  |  | 
C[C@@H]1O[C@@H](O[C@H]2C[C@@H](O)[C@]3(CO)[C@H]4[C@H](O)C[C@]5(C)[C@@H](C6=CC(=O)OC6)CC[C@]5(O)[C@@H]4CC[C@]3(O)C2)[C@H](O)[C@H](O)[C@H]1O [Ouabain, Ouabain (Strophanthin)] |  |  |  |  | approximately 40 nM | 71% | ~80 nM
C[C@@H]1OC(O[C@@H]2C=C3CC[C@@H]4[C@H](CC[C@]5(C)[C@@H](c6ccc(=O)oc6)CC[C@]45O)[C@@]3(C)CC2)[C@H](O)C(O)C1O (stereo partly drawn) [Proscillaridin] | increase HDL secretion | increase VLD/LDL particle size | reduce VLD/LDL total quantity | significantly reduces serum ApoB-100 levels |  |  | 
Gitoxin |  |  |  |  |  | 27% | 
